Assay results as given in article PMC11206519, “Multi-Endpoint Toxicological Assessment of Chrysin Loaded Oil-in-Water Emulsion System in Different Biological Models” (Nanomaterials, 2024).
pIC50: −log10 of the molar value.

Tests used:
3T3-L1 = test: MTT cytotoxicity assay; assay type: cell-based; details: Mus musculus, 48 h
Description: (§1) RAW 264.7 (murine macrophage-like cell), 3T3-L1 adipocyte (murine adipocyte), HEK293 (human embryonic kidney cell), and LX-2 (human hepatic stellate cell) were obtained from American Type Culture Collection (ATCC, Manassas, VA, USA). RAW 264.7 macrophages were cultured as a suspension culture in an ultra-low attachment culture dish, whereas the others were cultured as adherent cells in a cell culture flask. The cells were grown in Dulbecco’s Modified Eagle Medium (DMEM) with L-glutamine, supplemented with 10% fetal bovine serum (FBS) (RAW 264.7, HEK293, and LX-2) or 10% fetal calf serum (FCS) (3T3-L1) and 1% penicillin under 5% CO2, at 37 °C. […] Blank-ES was used as a vehicle control. The amount of blank-ES was equal to chrysin-ES amount that was used for the treatment. The cytotoxicity of chrysin, chrysin-ES, and blank-ES in each cell was determined using an MTT assay. […] Then, the solution was gently removed, and the formazan crystal was dissolved with dimethyl sulfoxide (DMSO). The soluble formazan was measured using a microplate reader (Bio-TEK Synergy Hybrid Reader H4) at 540 nm. The cell viability is directly related to the absorbance of formazan. The percentage of cell viability was calculated using the following equation. Cell viability (%) = (Absorbance (sample))/(Absorbance (control)) × 100

HEK-293 = test: MTT cytotoxicity assay; assay type: cell-based; details: Homo sapiens, HEK293, 48 h
Description: as §1

LX-2 = test: MTT cytotoxicity assay; assay type: cell-based; details: Homo sapiens, LX-2, 48 h
Description: as §1

[1] = tested on: D. melanogaster trans-heterozygous mwh+/+flr3 larvae of the ST cross; test: SMART wing spot test, anti-mutagenicity, ST cross
Description: The somatic mutation and recombination test, or the wing spot test, using D. melanogaster was employed as an in vivo system to assess the mutagenicity and anti-mutagenicity of chrysin-ES. Two different crosses were conducted: (i) a standard cross (ST) and (ii) a high bioactivation cross (HB). The standard cross larvae were obtained from virgin female of flr3/TM3, Ser crossed with males of mwh/mwh, while the HB cross larvae expressing cytochrome P450 enzymes involved in xenobiotic biotransformation were obtained from virgin females of ORR/ORR; flr^3/In (3LR) TM3, ri p^psep l (3)89Aa bx^34e e Bd^s crossed with males of mwh/mwh. The flies were cultured at a constant temperature of 25 ± 1 °C and 60–70% RH at photoperiod 12:12 (light/dark). To evaluate the mutagenicity of chrysin and chrysin-ES, a hundred larva F1 progenies derived from the above crossing were fed with instant Drosophila medium (Formula 4-24®), Carolina, Burlington, NC, USA) containing chrysin or chrysin-ES (20–120 µg/mL). DI was used as a negative control, while 20 mM urethane (URE) was used as a positive control. The larvae were reared on each medium until pupation at 25 °C. After that, forty wings of surviving flies in each group were collected for mutant analysis. The mutant spots on the wings, including small single spots, large single spots, and twin spots, were counted. The statistical significance was calculated as previously described by Frei and Würgler.
Furthermore, the anti-mutagenicity of the samples was performed by a similar procedure as mentioned above.

[2] = cited from earlier work
[3] = decreases cell viability by 20%
[4] = decreases cell viability by 50%
[5] = NMU (sodium nitrite 36 mM: methylurea 10 mM) + 20 μg/mL

## O=c1cc(-c2ccccc2)oc2cc(O)cc(O)c12 [Chrysin, 5,7-dihydroxyflavone]
3T3-L1; [3]
  IC20: > 90 µM
3T3-L1; [4]
  pIC50: < 4.05
HEK-293; [3]
  IC20: ~53 µM
HEK-293; [4]
  pIC50: < 4.05
LX-2; [3]
  IC20: ~52 µM
LX-2; [4]
  pIC50: < 4.05
[1]; 40–80 µg/mL
  inhibition of MMC mutagenicity: approximately 30%
[1]; EMS 5 mM + 20 μg/mL
  Inhibition (%): 19%
  Inhibitory Classification: Negligible
  Mutant spots per individual (number of spots), Large Single: 1.28 (51)
  Mutant spots per individual (number of spots), Small Single: 4.88 (195)
  Mutant spots per individual (number of spots), Total: 6.35 (254)
  Mutant spots per individual (number of spots), Twin: 0.20 (8)
[1]; EMS 5 mM + 40 μg/mL
  Inhibition (%): 46%
  Inhibitory Classification: Moderate
  Mutant spots per individual (number of spots), Large Single: 0.93 (37)
  Mutant spots per individual (number of spots), Total: 4.20 (168)
  Mutant spots per individual (number of spots), Twin: 0.35 (14)
[1]; EMS 5 mM + 80 μg/mL
  Inhibition (%): 49%
  Inhibitory Classification: Moderate
  Mutant spots per individual (number of spots), Large Single: 0.35 (14)
  Mutant spots per individual (number of spots), Small Single: 3.50 (140)
  Mutant spots per individual (number of spots), Total: 3.95 (158)
  Mutant spots per individual (number of spots), Twin: 0.10 (4)
[1]; EMS 5 mM + 120 μg/mL
  Inhibition (%): 42%
  Inhibitory Classification: Moderate
  Mutant spots per individual (number of spots), Large Single: 0.88 (35)
  Mutant spots per individual (number of spots), Small Single: 3.40 (136)
  Mutant spots per individual (number of spots), Total: 4.55 (182)
  Mutant spots per individual (number of spots), Twin: 0.28 (11)
[1]; MMC 0.05 mM + 20 μg/mL
  Inhibition (%): −1%
  Mutant spots per individual (number of spots), Large Single: 1.45 (58)
  Mutant spots per individual (number of spots), Small Single: 8.05 (322)
  Mutant spots per individual (number of spots), Total: 9.85 (394)
  Mutant spots per individual (number of spots), Twin: 0.35 (14)
[1]; MMC 0.05 mM + 40 μg/mL
  Inhibition (%): 30%
  Inhibitory Classification: Weak
  Mutant spots per individual (number of spots), Large Single: 1.35 (54)
  Mutant spots per individual (number of spots), Small Single: 4.98 (199)
  Mutant spots per individual (number of spots), Total: 6.85 (274)
  Mutant spots per individual (number of spots), Twin: 0.53 (21)
[1]; MMC 0.05 mM + 80 μg/mL
  Inhibition (%): 30%
  Inhibitory Classification: Weak
  Mutant spots per individual (number of spots), Large Single: 1.63 (65)
  Mutant spots per individual (number of spots), Small Single: 4.48 (179)
  Mutant spots per individual (number of spots), Total: 6.83 (273)
  Mutant spots per individual (number of spots), Twin: 0.73 (29)
[1]; MMC 0.05 mM + 120 μg/mL
  Inhibition (%): 77%
  Inhibitory Classification: Strong
  Mutant spots per individual (number of spots), Large Single: 0.58 (23)
  Mutant spots per individual (number of spots), Small Single: 1.50 (60)
  Mutant spots per individual (number of spots), Total: 2.25 (90)
  Mutant spots per individual (number of spots), Twin: 0.18 (7)
[1]; MMC 0.05 mM + 120 μg/mL, listed as chrysin
  Inhibition (%): approximately 77%
[1]; [5]
  Inhibition (%): 89%
  Inhibitory Classification: Strong
  Mutant spots per individual (number of spots), Large Single: 0.03 (1)
  Mutant spots per individual (number of spots), Small Single: 0.15 (6)
  Mutant spots per individual (number of spots), Total: 0.23 (9)
  Mutant spots per individual (number of spots), Twin: 0.05 (2)
[1]; NMU + 40 μg/mL
  Inhibition (%): 91%
  Inhibitory Classification: Strong
  Mutant spots per individual (number of spots), Large Single: 0 (0)
  Mutant spots per individual (number of spots), Small Single: 0.18 (7)
  Mutant spots per individual (number of spots), Total: 0.18 (7)
  Mutant spots per individual (number of spots), Twin: 0 (0)
[1]; NMU + 80 μg/mL
  Inhibition (%): 91%
  Inhibitory Classification: Strong
  Mutant spots per individual (number of spots), Large Single: 0 (0)
  Mutant spots per individual (number of spots), Small Single: 0.18 (7)
  Mutant spots per individual (number of spots), Total: 0.18 (7)
  Mutant spots per individual (number of spots), Twin: 0 (0)
[1]; NMU + 120 μg/mL
  Inhibition (%): 90%
  Inhibitory Classification: Strong
  Mutant spots per individual (number of spots), Large Single: 0.08 (3)
  Mutant spots per individual (number of spots), Small Single: 0.13 (5)
  Mutant spots per individual (number of spots), Total: 0.20 (8)
  Mutant spots per individual (number of spots), Twin: 0 (0)
[1]; URE 20 mM + 20 μg/mL
  Inhibition (%): 94%
  Inhibitory Classification: Strong
  Mutant spots per individual (number of spots), Large Single: 0 (0)
  Mutant spots per individual (number of spots), Small Single: 0.23 (9)
  Mutant spots per individual (number of spots), Total: 0.23 (9)
  Mutant spots per individual (number of spots), Twin: 0 (0)
[1]; URE 20 mM + 40 μg/mL
  Inhibition (%): 91%
  Inhibitory Classification: Strong
  Mutant spots per individual (number of spots), Large Single: 0.03 (1)
  Mutant spots per individual (number of spots), Small Single: 0.33 (13)
  Mutant spots per individual (number of spots), Total: 0.35 (14)
  Mutant spots per individual (number of spots), Twin: 0 (0)
[1]; URE 20 mM + 80 μg/mL
  Inhibition (%): 91%
  Inhibitory Classification: Strong
  Mutant spots per individual (number of spots), Large Single: 0 (0)
  Mutant spots per individual (number of spots), Small Single: 0.35 (14)
  Mutant spots per individual (number of spots), Total: 0.35 (14)
  Mutant spots per individual (number of spots), Twin: 0 (0)
[1]; URE 20 mM + 120 μg/mL
  Inhibition (%): 86%
  Inhibitory Classification: Strong
  Mutant spots per individual (number of spots), Large Single: 0.03 (1)
  Mutant spots per individual (number of spots), Small Single: 0.55 (22)
  Mutant spots per individual (number of spots), Total: 0.56 (23)
  Mutant spots per individual (number of spots), Twin: 0 (0)
[2]
  chrysin uptake eliminated in the feces: 98%
